≈ marks a conversion by molar mass, not a printed value. Read-outs that look alike come from different tables or passages of the source. Non-standard residues stand in square brackets, D forms with d. Residues, ends and D or L forms follow the SMILES beside them. d1Nal = N[C@H](Cc1cccc2ccccc12)C(=O)O
Legend:
[1] = test system: albino hairless guinea pigs Crl:IAF(HA)-hrBR (Outbred); test: Photosafety study: primary irritancy, phototoxicity, contact hypersensitivity, photoallergy; type: in vivo, guinea pig; conditions: single topical administration and UVR; XMP.629 up to 10 mg/mL (1.0%)
Experimental: XMP.629 was evaluated for photoallergic potential administered topically to hairless guinea pigs. Primary irritancy, phototoxicity (photoirritancy) and contact hypersensitivity were also evaluated in these studies.
Male CrI:IaF(HA)-hrBR (Outbred) albino hairless guinea pigs were assigned to 7 groups, five guinea pigs per group as outlined below.
XMP.629 was formulated as a gel. The phototoxicity comparator article was 8-methoxypsoralen (8-MOP) in methanol at concentrations of 0.1, 0.3 and 1.0 mg/mL. The contact hypersensitivity and photoallergy comparator article was 3,3′,4′,5′-tetrachlorosalicy/anilide (TCSA) in acetone:corn oil (4:1, v/v) at challenge concentrations of 0 (Vehicle), 10, and 30 mg/mL. The reagent and reagent vehicle were Freund's complete adjuvant (FCA) and sterile water for injection, USP, respectively.
The formulation administration and ultraviolet radiation (UVR) exposure regimens for each group in the study were as follows.
For all phases of the study, test articles, test article vehicles, comparator articles and comparator article vehicles were administered (0.3 ml) using a Hilltop chamber affixed to the guinea pig with dental dam overlaid with a Velcro® wrap for approximately 2.0 hours per administration.
Primary irritancy potential of the test articles and test article vehicles was evaluated in Group 1 guinea pigs. Three chambers (one per formulation dosage) were attached to the dorsal skin along the midline. After the administration period the chamber patches were removed and the application sites were gently wiped.
Cutaneous phototoxicity potential of the test articles and test article vehicles was evaluated in Group 2 guinea pigs. Group 3 guinea pigs were used as a comparator group with elicitation of phototoxicity with 8-MOP. Three chambers (one per formulation dosage) were attached to the dorsal skin along the midline and occluded. After the administration period the chamber patches were removed and the application sites were gently wiped. After wiping, Group 2 and 3 guinea pigs were exposed to solar-simulated UVR for approximately 2.25 hours.
For induction of contact hypersensitivity and photoallergy, a nuchal area of skin approximately 2.5 cm^2 was defined by intradermal injections with a formulation of sterile water and FCA in guinea pigs in Groups 4 through 7 under isoflurane/oxygen anesthesia. This skin area was then tape stripped five times. Formulations were topically administered via chambers as described in the study design table using one chamber attached to the nuchal area. After removal of the chambers the application sites were gently wiped and the nuchal site of Group 6 and 7 guinea pigs was exposed to UVR as above. Appropriate procedures for guinea pigs (with the exception of injection with FCA) were repeated once daily on Days 3, 5, 8, 10 and 12 of the induction phase.
On Day 22 (contact hypersensitivity and photoallergy challenge), formulations were topically applied to appropriate sites on guinea pigs in Groups 4 through 7 as described above. Three chambers (one per formulation dosage) were attached to the dorsal skin along the midline and occluded. The chambers were then removed and the application sites were gently wiped. Guinea pigs in Groups 6 and 7 were then exposed to UVR as above.
Observations for general appearance and clinical signs were made weekly throughout the study. […] Body weights were recorded at initiation of dosing for each phase, weekly thereafter and at sacrifice. […]

Bacteroides fragilis = test: microbe, parasite or virus in culture; type: cell-based; conditions: Bacteroides fragilis 25285; read-out: Minimum Inhibitory Concentrations
Experimental: (§1) Acne vulgaris may involve a microbial consortium. Although P. acnes may be a prominent member of such a consortium, other uncharacterized bacteria may also participate. The microbial activity of XMP.629 as an acetate gel as described in Example 5 and other commonly used antibiotics was evaluated against a panel of human pathogens using standardized NCCLS protocols. […] Lesser potency was observed against the gram-negative organisms B. fragilis, B. cepacia, P. mirabilis and S. marcescens, which are often refractory to many antimicrobial compounds.

Escherichia coli = test: microbe, parasite or virus in culture; type: cell-based; conditions: Escherichia coli, read-out: Minimum Inhibitory Concentrations
Experimental: as §1

Klebsiella pneumoniae = test: microbe, parasite or virus in culture; type: cell-based; conditions: Klebsiella pneumoniae, read-out: Minimum Inhibitory Concentrations
Experimental: as §1

Proteus mirabilis = test: microbe, parasite or virus in culture; type: cell-based; conditions: Proteus mirabilis 29852; read-out: Minimum Inhibitory Concentrations
Experimental: as §1

Serratia marcescens = test: microbe, parasite or virus in culture; type: cell-based; conditions: Serratia marcescens 13880; read-out: Minimum Inhibitory Concentrations
Experimental: as §1

Staphylococcus aureus [2] = conditions: Staphylococcus aureus 342U-116
E. coli = E. coli 4104 LF
Pseudomonas aeruginosa = test: microbe, parasite or virus in culture
P. acnes [3] = conditions: strains UPC686 and UP2022; with XMP.629
[4] = test system: P. acnes strain (ATCC 6919); conditions: P. acnes ATCC 6919 passaged in the drug, level of the resistant culture sought/obtained
P. acnes [5] = test: microbe, parasite or virus in culture; conditions: Cutibacterium acnes; for MIC90: read-out: MIC90 of Standard Topical Agents
Experimental: An in vitro assessment of antibiotic activity in XMP.629 and various known antibiotics against a representative panel of bacterial strains associated with acne was conducted. A broth dilution methodology was employed using guidelines established by National Committee for Clinical Laboratory Standards (NCCLS) for anaerobic organisms to establish an antibacterial profile for XMP.629. Assays to determine the minimal bactericidal concentrations (MBC) and minimal inhibitory concentration (MIC) were conducted for XMP.629 and other known antibiotics.
Inoculum from a representative panel of bacterial strains associated with acne, such as P. acnes, P. avidum, P. granulosum, and Staphylococcus epidermis was prepared by suspending approximately 5-10 isolated bacterial colonies in pre-reduced MicroScan® Inoculum Water (Dade Behring, Deerfield, Ill.), and growing the bacterial suspension to log phase (approximately 48 hrs). An inoculum of between 1-5×10^6/mL was achieved by adding 100 μL of the suspension to 25 mL Brain Heart Infusion Broth (BHI) (Anaerobe Systems, Morgan Hill, Calif.).
A stock solution of XMP.629 dissolved in water at a concentration of 4.0 mg/mL was prepared. Dilute solutions of XMP.629 at concentrations ranging from about 1.25 to about 160 μg/mL were made in either water or formulation buffer (130 mM sodium chloride, 0.2% P103 (poloxamer 333), and 0.10% EDTA, pH 7.3).
Control tubes containing only water or formulation buffer were prepared for each isolate. Initial growth controls were determined by removing 10 μL from the water control tube and diluting it by 100 fold. From this dilution, 10 μL was used for inoculation and for spreading over the surface onto Laked Blood Agar (LBA) (Anaerobe Systems, Morgan Hill, Calif.) plates. The tubes and plates were incubated in an anaerobic atmosphere at 37° C. for 48 h.

P. acnes [6] = test: microbe, parasite or virus in culture; conditions: Cutibacterium acnes
Corynebacterium = test: microbe, parasite or virus in culture; type: cell-based; conditions: read-out: MIC90 of Standard Topical Agents
Experimental: (§2) Control tubes containing only water or formulation buffer were prepared for each isolate. Initial growth controls were determined by removing 10 μL from the water control tube and diluting it by 100 fold. From this dilution, 10 μL was used for inoculation and for spreading over the surface onto Laked Blood Agar (LBA) (Anaerobe Systems, Morgan Hill, Calif.) plates. The tubes and plates were incubated in an anaerobic atmosphere at 37° C. for 48 h. […] MBC50 and 90 values represent where 50 and 90%, respectively, of the tested strain's MBC values are equal to or less than the indicated concentration.

S. aureus = test: Comparison of XMP.629 with standard topical agents (MIC90/MBC); type: cell-based, Staphylococcus aureus; conditions: Staphylococcus aureus
Experimental: as §2

[7] = test system: P. acnes strain (ATCC 6919); test: microbe, parasite or virus in culture; conditions: Cutibacterium acnes, ATCC6919, read-out: MIC for matched, untreated, control organisms
[8] = test system: Enterococcus faccium (VRE); test: microbe, parasite or virus in culture; conditions: read-out: Minimum Inhibitory Concentrations
Staphylococcus aureus [9] = test: microbe, parasite or virus in culture
hemizygous Tg.AC mice = test: Mouse dermal carcinogenicity study (TPA in XMP.629 acetate gel placebo); type: in vivo
Experimental: XMP.629 was evaluated in a dermal carcinogenicity study to determine whether repeated dermal treatment with tetradeconyl phorbol acetate (TPA) in a XMP.629 acetate gel placebo formulation increased the incidence of skin tumors in hemizygous Tg.AC mice. […] Group 1 was treated with XMP.629 acetate gel placebo alone. A sixth group (Group 2) was treated with TPA dissolved in acetone at a dose level of 1.25 μg per 150 μL application and served as a reference standard. The animals were dosed via dermal application three times per week (e.g., Monday, Wednesday and Friday) for 12 consecutive weeks.
All animals were observed twice daily for moribundity and mortality. A hands-on examination was performed weekly at the time the animals were weighed on Day 1 and weekly thereafter. At that time, the animals were examined for clinical evidence of toxicity, carcinogenicity, and/or irritation at the site of application. […] The number of tumors at the site of application (SOA) and non-site of application (non-SOA) was recorded for each animal each week. At the end of the study (Day 85), the surviving animals were euthanized with CO2 asphyxiation. A necropsy was not performed.

[10] = 10 mg/kg oral gavage
in vivo = conditions: both, rat, plasma, po, 10 mg/kg, Bioavailability, 10 mg/kg oral gavage in distilled water
skin of healthy subjects = test: 21-day cumulative skin irritation study in healthy subjects; conditions: occlusive patches
Experimental: Subjects include males and females, ranging in age from 18 to 70 years old. Subjects are of any skin and race type.
Patches are prepared approximately 5-60 minutes before application to the subject and are applied on the backs of subjects at designated sites. Patches are held in place with appropriate adhesion tapes for 48 hours. Gels are applied to the same site on a given subject according to the randomization code three times per week. Subjects are instructed to keep the patches dry and are asked to avoid exercise that results in excessive sweating. Additionally, subjects are instructed to not expose the applied sites to sunlight for the duration of the study.
Every application is observed 48 hours later for signs of irritation or inflammation by a clinician or investigator. The clinician or investigator evaluates sign of skin reaction on each site for approximately 5-15 minutes after the patch is removed. Skin irritancy is rated according to the following commonly used 6-point scale: • 0=No sign of irritation • 0.5=Barely perceptible erythema • 1=Slight erythema • 2=Noticeable erythema with slight infiltration • 3=Erythema with marked edema • 4=Erythema with edema and blistering
Other signs of skin reaction to the tested gels are noted as adverse events and are recorded. A total of nine readings are performed during the study. […]

[11] = read-out: Minimum Inhibitory Concentrations, Pseudomonas aeruginosa 27853
[12] = clindamycin/erythromycin sensitive strain UP2022

Experimental for physchem: In additional studies, a variety of formulations of XMP.629 were tested for stability under various temperatures, such as 25° C., 40° C., and 50° C., and at various time points, such as 0.5, 1, and 2 months.
The solubility of XMP.629 acetate in various solvents was also evaluated.
Solubility studies were conducted using a variety of solvent systems and/or skin penetration enhancers.

COc1c2occc2cc2ccc(=O)oc12 [8-MOP, 8-methoxypsoralen, reference compound]
phototoxicity [1]: produced skin reactions indicative of cutaneous phototoxicity

CO/N=C(\C(=O)N[C@@H]1C(=O)N2C(C(=O)O)=C(CSc3nc(=O)c(=O)[nH]n3C)CS[C@H]12)c1csc(N)n1 [Ceftriaxone]
MIC (Bacteroides fragilis): 2.5 µg/mL (≈ 4.51 µM)
MIC (Escherichia coli; Escherichia coli 07:K1): ≤ 0.25 µg/mL
MIC (Escherichia coli; Escherichia coli 0111:B4): ≤ 0.063 µg/mL
MIC (Klebsiella pneumoniae; Klebsiella pneumoniae 19645): > 64 µg/mL
MIC (Klebsiella pneumoniae; Klebsiella pneumoniae 29011): 0.13 µg/mL (≈ 0.234 µM)
MIC (Proteus mirabilis): ≤ 0.063 µg/mL
MIC (Serratia marcescens): 0.25 µg/mL (≈ 0.451 µM)
MBC (antibiotic alone) (Staphylococcus aureus [2]): >4 µg/mL
MBC (antibiotic alone) (E. coli): ≦4 μg/mL
MIC (Pseudomonas aeruginosa; [11]): 8 µg/mL (≈ 14.4 µM)
MIC (Pseudomonas aeruginosa; read-out: Minimum Inhibitory Concentrations, Pseudomonas aeruginosa XS-65 (MDR)): 16 µg/mL (≈ 28.9 µM)

CCC[C@@H]1C[C@@H](C(=O)N[C@@H]([C@H]2O[C@H](SC)[C@H](O)[C@@H](O)[C@H]2O)[C@H](C)Cl)N(C)C1 [Clindamycin]
FIC (P. acnes [3]): 2
MIC/MBC [4]: >64 µg/mL
MIC90 (P. acnes [5]): 16 µg/mL (≈ 37.6 µM)
MIC (P. acnes [5]; read-out: MIC of clindamycin resistant strains): > 64 µg/mL
MIC (P. acnes [6]; [12]): < 1 µg/mL

C[C@H]1c2cccc(O)c2C(=O)C2=C(O)[C@]3(O)C(=O)C(C(N)=O)=C(O)[C@@H](N(C)C)[C@@H]3[C@@H](O)[C@@H]21 [Doxycycline]
MIC (Escherichia coli; Escherichia coli 0111:B4): 2 µg/mL (≈ 4.5 µM)
MIC (Klebsiella pneumoniae; Klebsiella pneumoniae 19645): 32 µg/mL (≈ 72 µM)
MIC (Klebsiella pneumoniae; Klebsiella pneumoniae 29011): 32 µg/mL (≈ 72 µM)
MIC (Proteus mirabilis): 64 µg/mL (≈ 144 µM)
MIC (Serratia marcescens): 8 µg/mL (≈ 18 µM)
MIC (Pseudomonas aeruginosa; [11]): 32 µg/mL (≈ 72 µM)

CC[C@H]1OC(=O)[C@H](C)[C@@H](O[C@H]2C[C@@](C)(OC)[C@@H](O)[C@H](C)O2)[C@H](C)[C@@H](O[C@@H]2O[C@H](C)C[C@H](N(C)C)[C@H]2O)[C@](C)(O)C[C@@H](C)C(=O)[C@H](C)[C@@H](O)[C@]1(C)O [Erythromycin]
MIC90 (Corynebacterium): 0.5 µg/mL (≈ 0.681 µM)
MIC90 (S. aureus): > 4 µg/mL
FIC (P. acnes [3]): 2
MIC/MBC ([4]; listed as Erythromycin IR): 64 µg/mL (≈ 87.2 µM)
MIC/MBC ([4]; listed as Erythromycin R): >64 µg/mL
MIC90 (P. acnes [5]): > 256 µg/mL
MIC (P. acnes [6]; ATCC6919, ATCC 6919 converted to an intermediate-erythromycin strain): 64 µg/mL (≈ 87.2 µM)
MIC (P. acnes [6]; [12]): < 1 µg/mL
MIC [7]: 4 µg/mL (≈ 5.45 µM)

C/C(=C\C(=O)OCCCCCCCCC(=O)O)C[C@@H]1OC[C@H](C[C@@H]2O[C@H]2[C@@H](C)[C@H](C)O)[C@@H](O)[C@H]1O [Mupirocin]
MIC90 (S. aureus): 4 µg/mL (≈ 7.99 µM)

Cc1onc(-c2ccccc2)c1C(=O)N[C@@H]1C(=O)N2[C@@H]1SC(C)(C)[C@@H]2C(=O)O [Oxacillin]
MBC (antibiotic alone) (Staphylococcus aureus [2]): 1 µg/mL (≈ 2.49 µM)
MIC [8]: > 64 µg/mL
MIC (Staphylococcus aureus [9]; BAA38|MRSA, read-out: Minimum Inhibitory Concentrations, Staphylococcus aureus BAA-38 (MRSA)): 8 µg/mL (≈ 19.9 µM)
MIC (Staphylococcus aureus [9]; read-out: Minimum Inhibitory Concentrations, Staphylococcus aureus 19636): 1 µg/mL (≈ 2.49 µM)

CCCCCCCCCCCCCC(=O)O[C@@H]1[C@@H](C)[C@@]2(O)[C@@H](C=C(CO)C[C@]3(O)C(=O)C(C)=C[C@@H]23)[C@@H]2C(C)(C)[C@]12OC(C)=O [TPA, tetradeconyl phorbol acetate]
tumor development (hemizygous Tg.AC mice; 10 μg TPA per application, a single female): one latent and one actual papilloma
tumor development, females (hemizygous Tg.AC mice; 20 μg TPA per application): 4/4
tumor development, males (hemizygous Tg.AC mice; 20 μg TPA per application): 2/5
tumor development (hemizygous Tg.AC mice; 2.5 and 5.0 μg per application in XMP.629 acetate gel placebo): did not result in tumor development

CC(C)C[C@@H](NC(=O)[C@H](N)CCCCN)C(=O)N[C@H](Cc1ccccc1)C(=O)N[C@H](CCCNC(=N)N)C(=O)N[C@H](Cc1cccc2ccccc12)C(=O)N[C@H](CCC(N)=O)C(=O)N[C@H](C)C(=O)N[C@H](CCCCN)C(=O)N[C@H](Cc1cccc2ccccc12)C(N)=O [XMP.629 acetate] (H-[dK][dL][dF][dR][d1Nal][dQ][dA][dK][d1Nal]-NH2)
Bioavailability, 5% glucose formulation versus distilled water [10]: ~4 fold
peak concentrations, 5% glucose formulation versus distilled water [10]: ~4 fold
time of peak concentrations following dosing [10]: 10 to 20 min
bioavailability (in vivo): ~0.001%
solubility (physchem; ethanol, 200 proof): < 2200 µg/mL
solubility (physchem; propylene glycol): 10600 to 12500 µg/mL
solubility (physchem; purified water): < 1660 µg/mL
solubility (physchem; sodium acetate buffer, pH 6): > 1640 µg/mL
solubility (physchem; transcutol P): < 170 µg/mL

CCCCCCCCCCCCOS(=O)(=O)[O-].[Na+] [sodium lauryl sulfate]
cumulative irritation, conclusion (skin of healthy subjects): mild cumulative irritation
mean cumulative irritation score (skin of healthy subjects): 0.25
